Experimental data published in patent publication US20080318788A1, “Microcapsule” (priority 2005, published 2008).

experiment: Water solubility of UV protection dyes; settings: not given

WATER SOLUBILITY | Compound
70 mg/mL | Cc1cc(N=Nc2ccc(C)c(N=Nc3cc(C)c(N)cc3N)c2)c(N)cc1N [Bismark Brown R]
40 mg/mL | O=S(=O)([O-])c1ccc2c(N=Nc3ccccc3)c(O)ccc2c1.[Na+] [Crocein Orange G]
100 mg/mL | CCN(CC)c1ccc(N=Nc2ccc(S(=O)(=O)[O-])cc2)cc1.[K+] [Ethyl Orange]
60 mg/mL | Cc1cc(N=Nc2cc([N+](=O)[O-])cc([N+](=O)[O-])c2O)c(N)cc1N [Mordant Brown 4]
20 mg/mL | Nc1cc(N)c(S(=O)(=O)[O-])cc1N=Nc1cc([N+](=O)[O-])ccc1O.[Na+] [Mordant Brown 33]
30 mg/mL | Acid Orange 51

Continued, compound first:

Compound | WATER SOLUBILITY
CC1=NN(c2ccc(S(=O)(=O)[O-])cc2)C(=O)C1N=Nc1ccc(-c2ccc(N=Nc3ccc(OS(=O)(=O)c4ccc(C)cc4)cc3)c(S(=O)(=O)[O-])c2)cc1.[Na+].[Na+] (stereo not shown) [Acid Orange 63] | 50 mg/mL
Cc1nn(-c2ccccc2)c([O-])c1N=Nc1cc([N+](=O)[O-])cc(S(=O)(=O)[O-])c1[O-].[Cr+3].[Na+].[OH-] [Acid Orange 74] | 20 mg/mL
Nc1ccc(N=Nc2cccc(N=Nc3ccc(N)cc3N)c2)c(N)c1 [Bismark Brown Y] | 50 mg/mL
O=S1(=O)OC(c2ccc(O)c(Cl)c2)(c2ccc(O)c(Cl)c2)c2ccccc21 [Chlorophenol Red] | 60 mg/mL
CC(=O)Nc1ccc2nc3c4ccccc4c(=N)cc-3oc2c1.Cl [Darrow Red] | 1 mg/mL
CCN(CC)c1ccc(N=Nc2ccccc2C(=O)O)cc1 [Ethyl Red] | 3 mg/mL
Nc1cc(N)c(N=Nc2cccc3c(S(=O)(=O)O)cccc23)cc1N=Nc1cc([N+](=O)[O-])ccc1O.[Na] [Mordant Brown 1] | 60 mg/mL
Nc1cc(N)c(N=Nc2cc([N+](=O)[O-])cc([N+](=O)[O-])c2O)cc1Cl [Mordant Brown 48] | 40 mg/mL
Cc1cc(O)ccc1C1(c2ccc(O)cc2C)OS(=O)(=O)c2ccccc21 [m-Cresol Purple] | 2 mg/mL

experiment: Photo stabilisation study of COMPOUND (V) in gelatine microcapsules exposed to daylight, HPLC assay; format: physicochemical; settings: Chocolate Brown dyed gelatine capsules, 88 hours exposure to daylight (8 hours daylight over 11 days)
Description: The HPLC system was from Waters comprising of two 510 pumps, a 717 plus Autosampler, a System Interface Module, a Lambda-Max 480 detector and Millennium Chromatography Manager software. Chromatography was achieved on a Zorbax ODS 5 μm C18 analytical column of dimension 4.6×250 mm internal diameter maintained at 35° C. Mobile phases were unmodified water (Milli-Q grade) in reservoir A and unmodified acetonitrile in reservoir B. Linear gradient elution was used with 70 to 90% B over the first 10 minutes, then 100% B for 3 minutes and returning to 70% B over 4 minutes. Injection cycle time was 20 minutes with a flow rate of 2 ml/min. The samples were either dissolved in acetonitrile or diethyl ether and 10 μl volume injected on to the column which was maintained at 35° C. Prior to use, mobile phase were degassed under vacuum with sonication and continuously sparged with helium. The naphthoquinones were detected by measurement of UV absorbance at 269 nm.
A batch of gelatine microcapsules containing 300 mg of COMPOUND (V) in 15 ml of Exxsol® D100 was produced.
The capsule slurry was washed repeatedly with water to remove debris and filtered to obtain a wet cake. An aliquot of the wet cake (11.3 g) was made up to 50 ml and dyed brown with Chocolate Brown (500 mg, equivalent to 10 mg/ml solution). Aliquots (200 μl) of microcapsule slurry of brown and undyed capsules were applied to glass microscope slides in duplicate. The slurry from each batch was spread to form a monolayer of microcapsules on each slide. The slides were air dried in a dark at room temperature (≅21° C.) and exposed to daylight on a south-facing windowsill for various time periods. Two slides from each batch were analysed per time point post of exposure. Unexposed slides stored in the dark were used as time zero reference.
The contents of the capsules were extracted by rupturing the capsules, by rolling a glass rod on the slides, and washing both the rod and the slide with diethyl ether. The extracts were made up to 10 ml and assayed by HPLC.

Compound | amount of COMPOUND (V) remaining, % of the initial amount
CC(=O)OC1=C(C(C)CCC[Si](C)(C)C)C(=O)c2ccccc2C1=O (stereo not shown) [COMPOUND (V)] | ~80%

same assay, conditions: undyed impervious gelatine capsules, 6 hours exposure to daylight

Compound | amount of COMPOUND (V) remaining, % of the initial amount
CC(=O)OC1=C(C(C)CCC[Si](C)(C)C)C(=O)c2ccccc2C1=O (stereo not shown) [COMPOUND (V)] | 60%

same assay, conditions: undyed impervious gelatine capsules, 16 hours exposure to daylight

Compound | amount of COMPOUND (V) remaining, % of the initial amount
CC(=O)OC1=C(C(C)CCC[Si](C)(C)C)C(=O)c2ccccc2C1=O (stereo not shown) [COMPOUND (V)] | 23%

same assay, conditions: undyed impervious gelatine capsules, 40 hours exposure to daylight (8 hours daylight over 5 days)

Compound | amount of COMPOUND (V) remaining, % of the initial amount
CC(=O)OC1=C(C(C)CCC[Si](C)(C)C)C(=O)c2ccccc2C1=O (stereo not shown) [COMPOUND (V)] | 6%
